Data taken from patent US6914045B2, “Glycopeptide antibiotics” (Wyeth Holdings Corporation, priority 2001, dated 2005).

Columns and labels:
Enterococcus sp. = experiment: in vitro antibacterial evaluation, MIC by broth dilution; type: cell-based; settings: broth dilution, 18 hours at 35° C.
Summary of the method: (§1)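 Broth dilution per NCCLS M7-A2 in Mueller-Hinton II medium, inoculum 5×10^5 CFU/mL, antibiotic range 64-0.06 μg/mL. MIC taken as lowest concentration inhibiting growth; Gram-positive panel includes recent clinical isolates resistant to methicillin, penicillin and/or vancomycin.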

Streptococcus sp. = experiment: as above; type: cell-based; settings: broth dilution, 18 hours at 35° C.
Summary of the method: as §1

Staphylococcus sp. = experiment: as above; type: cell-based; settings: broth dilution, 18 hours at 35° C.; for MIC Staphylococcus aureus (ATCC 29213): strain ATCC 29213; for MIC Staphylococcus aureus (GC 1131): strain GC 1131; for MIC Staphylococcus aureus (GC 3051): strain GC 3051; for MIC Staphylococcus aureus (GC 3053): strain GC 3053; for MIC Staphylococcus aureus (GC 4541): strain GC 4541; for MIC Staphylococcus aureus (GC 4542): strain GC 4542; for MIC Staphylococcus aureus-SMITH (GC 4543): strain GC 4543; for MIC Staphylococcus aureus (GC 4544): strain GC 4544; for MIC Staphylococcus aureus (GC 4545): strain GC 4545; for MIC Staphylococcus haemolyticus (GC 4546): strain GC 4546; for MIC Coagulase Negative Staphylococcus (GC 4547): strain GC 4547; for MIC Coagulase Negative Staphylococcus (GC 4548): strain GC 4548; for MIC Coagulase Negative Staphylococcus (GC 4549): strain GC 4549; for MIC Coagulase Negative Staphylococcus (GC 4551): strain GC 4551; for MIC Coagulase Negative Staphylococcus (GC 6257): strain GC 6257
Summary of the method: as §1

Escherichia coli = experiment: as above; type: cell-based; settings: 18 hours at 35° C.
Summary of the method: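 Broth dilution MIC per NCCLS M7-A2 in Mueller-Hinton II medium, inoculum 5×10^5 CFU/mL, antibiotic range 64-0.06 μg/mL. MIC taken as lowest concentration inhibiting growth.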

[1] = anatomic pathology (histopathology of heart and kidney) in mice; type: in vivo; settings: CD-1 mice, 20 mg/kg intravenously daily for 9 days, necropsy day 10, microscopic histopathology
Description: Samples of tissues from necropsied mice were formalin-fixed, paraffin-embedded, sectioned, stained with hematoxylin and eosin, and examined microscopically. Histopathologic findings were recorded. These findings were subjectively graded on a scale corresponding to slight, mild, moderate, marked and severe as compared to untreated controls.

CC(c1ccccc1)C1NC(=O)CNC(=O)C(CO)NC(=O)C(C(O)C2CN(Cc3ccc4ccccc4c3)C(=N)N2C2OC(CO)C(O)C(O)C2O)NC(=O)C(C(O)C2CNC(=N)N2)NC(=O)C(Cc2ccc(OC3OC(CO)C(OC4OC(CO)C(O)C(O)C4O)C(O)C3O)cc2)NC1=O (stereo not drawn) [Example 67, Cyclo[glycyl-β-methylphenylalanyl-O-(4-O-hexopyranosylhexoyranosyl)tyrosyl-3-(2-iminoimidazolidin-4-yl)seryl-3-[3-hexopyranosyl-2-imino-1-(2-naphthylmethyl)-imidazolidin-4-yl]-serylseryl]]
32 µg/mL: MIC Escherichia coli (GC 4560) (Escherichia coli)
>128 µg/mL: MIC Enterococcus faecalis (GC 4554) (Enterococcus sp.; Enterococcus faecalis (GC 4554)) | MIC Enterococcus faecium (GC 2243) (Enterococcus sp.; Enterococcus faecium (GC 2243)) | MIC Enterococcus faecium (GC 4556) (Enterococcus sp.; Enterococcus faecium (GC 4556)) | MIC Enterococcus faecalis (GC 4554) (Enterococcus sp.) | MIC Enterococcus faecium (GC 2243) (Enterococcus sp.) | MIC Enterococcus faecium (GC 4556) (Enterococcus sp.) | MIC Staphylococcus aureus (ATCC 29213) (Staphylococcus sp.) | MIC Staphylococcus aureus (GC 1131) (Staphylococcus sp.) | MIC Staphylococcus aureus (GC 3051) (Staphylococcus sp.) | MIC Staphylococcus aureus (GC 3053) (Staphylococcus sp.) | MIC Staphylococcus aureus (GC 4541) (Staphylococcus sp.) | MIC Staphylococcus aureus (GC 4542) (Staphylococcus sp.) | MIC Staphylococcus aureus-SMITH (GC 4543) (Staphylococcus sp.) | MIC Staphylococcus aureus (GC 4544) (Staphylococcus sp.) | MIC Staphylococcus aureus (GC 4545) (Staphylococcus sp.) | MIC Staphylococcus haemolyticus (GC 4546) (Staphylococcus sp.) | MIC Coagulase Negative Staphylococcus (GC 4548) (Staphylococcus sp.) | MIC Coagulase Negative Staphylococcus (GC 4549) (Staphylococcus sp.) | MIC Coagulase Negative Staphylococcus (GC 4551) (Staphylococcus sp.) | MIC Coagulase Negative Staphylococcus (GC 6257) (Staphylococcus sp.) | MIC Escherichia coli (ATCC 25922) (Escherichia coli) | MIC Escherichia coli (GC 4559) (Escherichia coli)
0: Anatomical Pathology (Day 10), Heart [1] | Anatomical Pathology (Day 10), Kidney [1]
64 µg/mL: MIC Enterococcus avium (GC 4558) (Enterococcus sp.; Enterococcus avium (GC 4558)) | MIC Enterococcus avium (GC 4558) (Enterococcus sp.) | MIC Streptococcus pneumoniae (GC 1894) (Streptococcus sp.) | MIC Streptococcus pneumoniae (GC 1894) (Streptococcus sp.; strain GC 1894)
128 µg/mL: MIC Enterococcus faecalis (ATCC 29212) (Enterococcus sp.; Enterococcus faecalis (ATCC 29212)) | MIC Enterococcus faecalis (GC 4552) (Enterococcus sp.; Enterococcus faecalis (GC 4552)) | MIC Enterococcus faecalis (GC 4553) (Enterococcus sp.; Enterococcus faecalis (GC 4553)) | MIC Enterococcus faecalis (GC 6189) (Enterococcus sp.; Enterococcus faecalis (GC 6189)) | MIC Enterococcus faecium (GC 4557) (Enterococcus sp.; Enterococcus faecium (GC 4557)) | MIC Enterococcus faecalis (ATCC 29212) (Enterococcus sp.) | MIC Enterococcus faecalis (GC 2242) (Enterococcus sp.) | MIC Enterococcus faecalis (GC 2691) (Enterococcus sp.) | MIC Enterococcus faecalis (GC 3059) (Enterococcus sp.) | MIC Enterococcus faecalis (GC 4552) (Enterococcus sp.) | MIC Enterococcus faecalis (GC 4553) (Enterococcus sp.) | MIC Enterococcus faecalis (GC 6189) (Enterococcus sp.) | MIC Enterococcus faecium (GC 4557) (Enterococcus sp.) | MIC Enterococcus faecalis (GC 2242) (Enterococcus sp.; strain GC 2242) | MIC Enterococcus faecalis (GC 2691) (Enterococcus sp.; strain GC 2691) | MIC Enterococcus faecalis (GC 3059) (Enterococcus sp.; strain GC 3059) | MIC Streptococcus agalactiae (GC 4564) (Streptococcus sp.) | MIC Streptococcus pneumoniae (ATCC 6301) (Streptococcus sp.) | MIC Streptococcus pneumoniae (GC 4565) (Streptococcus sp.) | MIC Streptococcus pyogenes (GC 4563) (Streptococcus sp.) | MIC Streptococcus pneumoniae (ATCC 6301) (Streptococcus sp.; strain ATCC 6301) | MIC Streptococcus pyogenes (GC 4563) (Streptococcus sp.; strain GC 4563) | MIC Streptococcus agalactiae (GC 4564) (Streptococcus sp.; strain GC 4564) | MIC Streptococcus pneumoniae (GC 4565) (Streptococcus sp.; strain GC 4565) | MIC Coagulase Negative Staphylococcus (GC 4547) (Staphylococcus sp.)

CCCCCCCN1CC(C(O)C2NC(=O)C(C(O)C3CNC(=N)N3)NC(=O)C(Cc3ccc(OC4OC(CO)C(OC5OC(CO)C(O)C(O)C5O)C(O)C4O)cc3)NC(=O)C(C(C)c3ccccc3)NC(=O)CNC(=O)C(CO)NC2=O)N(C2OC(CO)C(O)C(O)C2O)C1=N (stereo not drawn) [Example 71, Cyclo[glycyl-β-methylphenylalanyl-O-(4-O-hexopyranosylhexopyranosyl)tyrosyl-3-(2-iminoimidazolidin-4-yl)seryl-3-[1-heptyl-3-hexopyranosyl-2-iminoimidazolidin-4-yl]serylseryl]]
0: Anatomical Pathology (Day 10), Heart [1] | Anatomical Pathology (Day 10), Kidney [1]
>128 µg/mL: MIC Enterococcus avium (GC 4558) (Enterococcus sp.) | MIC Enterococcus faecalis (ATCC 29212) (Enterococcus sp.) | MIC Enterococcus faecalis (GC 2242) (Enterococcus sp.) | MIC Enterococcus faecalis (GC 2691) (Enterococcus sp.) | MIC Enterococcus faecalis (GC 3059) (Enterococcus sp.) | MIC Enterococcus faecalis (GC 4552) (Enterococcus sp.) | MIC Enterococcus faecalis (GC 4553) (Enterococcus sp.) | MIC Enterococcus faecalis (GC 4554) (Enterococcus sp.) | MIC Enterococcus faecalis (GC 6189) (Enterococcus sp.) | MIC Enterococcus faecium (GC 2243) (Enterococcus sp.) | MIC Enterococcus faecium (GC 4556) (Enterococcus sp.) | MIC Enterococcus faecium (GC 4557) (Enterococcus sp.) | MIC Streptococcus agalactiae (GC 4564) (Streptococcus sp.) | MIC Streptococcus pneumoniae (ATCC 6301) (Streptococcus sp.) | MIC Streptococcus pneumoniae (GC 1894) (Streptococcus sp.) | MIC Streptococcus pneumoniae (GC 4565) (Streptococcus sp.) | MIC Streptococcus pyogenes (GC 4563) (Streptococcus sp.) | MIC Staphylococcus aureus (ATCC 29213) (Staphylococcus sp.) | MIC Staphylococcus aureus (GC 1131) (Staphylococcus sp.) | MIC Staphylococcus aureus (GC 3051) (Staphylococcus sp.) | MIC Staphylococcus aureus (GC 3053) (Staphylococcus sp.) | MIC Staphylococcus aureus (GC 4541) (Staphylococcus sp.) | MIC Staphylococcus aureus (GC 4542) (Staphylococcus sp.) | MIC Staphylococcus aureus-SMITH (GC 4543) (Staphylococcus sp.) | MIC Staphylococcus aureus (GC 4544) (Staphylococcus sp.) | MIC Staphylococcus aureus (GC 4545) (Staphylococcus sp.) | MIC Staphylococcus haemolyticus (GC 4546) (Staphylococcus sp.) | MIC Coagulase Negative Staphylococcus (GC 4547) (Staphylococcus sp.) | MIC Coagulase Negative Staphylococcus (GC 4548) (Staphylococcus sp.) | MIC Coagulase Negative Staphylococcus (GC 4549) (Staphylococcus sp.) | MIC Coagulase Negative Staphylococcus (GC 4551) (Staphylococcus sp.) | MIC Coagulase Negative Staphylococcus (GC 6257) (Staphylococcus sp.) | MIC Escherichia coli (ATCC 25922) (Escherichia coli) | MIC Escherichia coli (GC 4559) (Escherichia coli)
128 µg/mL: MIC Escherichia coli (GC 4560) (Escherichia coli)
